Like-named read-outs stand apart in the source and are kept apart here. Where a SMILES comes first, the peptide text is derived from it.
How the values were obtained:
cancer cells = conditions: cited from earlier work
B16-F10 [1] = assay: in vitro tumor cell attachment assay on gelatinized culture plates (acid phosphatase colorimetric readout); format: cell-based
Procedure: The following two examples of assays for suitable agents are designed to approximate a wound environment, and thus act as quick tests for suitable agents for practical use in particular circumstances. These assays are not limiting to the application. One example of an in vitro assay for determining the effect of one of the above agents on tumor cell attachment was performed as follows. Gelatinized 96-well tissue culture plates (Co-star, Cambridge, MA) were prepared by treating a standard culture plate with 100 microliters of 1.5% gelatin (Difco, Detroit, MI) in phosphate-buffered saline (PBS) and incubating the plate at 37°C for at least 24 hours. The solution was then aspirated and the cells washed twice with 200 microliters of PBS prior to use. Test agents were diluted in Dulbecco's Modified Eagles Medium (DMEM; Gibco Laboratories, Grand Island, NY) containing 10% fetal calf serum (FCS; Gibco), and 100 microliters of the diluted agent added to each well. […] The cells were grown in DMEM supplemented with 10% FCS, 2 mM glutamine and 100 units per ml penicillin and streptomycin.
After the cells and agent were incubated, the medium was aspirated from each well and the well washed twice with 200 microliters of PBS. […] Briefly, 100 microliters of an acid phosphatase reagent (0.1M sodium acetate, 0.01M p-nitrophenyl phosphate, 0.1% Triton-X 100) was added to each well, the plates incubated at 37°C for two hours, and 10 microliters 1N NaOH added to each well. The optical density of each well was read at 405nm on a Biotek ELISA reader. The optical density is directly related to cell number. The results were expressed as percent of optical density in untreated control wells,and represent the mean of at least three wells.

B16-F10 [2] = assay: reversibility test: unattached cells washed and replated on gelatinized plates in new medium; format: cell-based; conditions: cells replated in fresh medium in new dishes
Procedure: In order to determine whether inhibition of cell attachment was non-toxic and reversible with any particular agent, the tumor cells were incubated in the presence of the agent and unattached cells collected, washed twice with serum containing medium, and replated on gelatinized well plates in new culture medium. Control cells were handled in a similar manner, except that they were removed from wells 16 hours after incubation by trypsinization. After incubation for 4-16 hours, the medium was aspirated, the wells washed twice with 200 microliters of PBS, and the remaining attached cells trypsinized and counted with a Coulter counter.

B16-F10 melonoma = format: in vivo, C57 B1/6 mice
Procedure: Inhibitors of tumor cell attachment in vivo are tested by their ability to block tumor cell attachment in a surgical wound. Wounds were made on the backs of C57 B1/6 mice (Charles River Laboratories, Wilmington, MA) using aseptic procedures under methoxyflurane anesthesia (Pittman-Moore Inc., Washington Crossing, NJ). […] The scissors were used to create a lateral subcutaneous pocket off a dorsal mid-line wound in an uncontaminated animal. Prior to use, the scissors were inspected to insure that no visible tissue was present on them. Prior to closure, the wounds were vigorously irrigated with 3ml of Ringers lactate supplemented with a chosen agent. Excess fluid was then expressed and the wound closed with skin clips.

## monoxychlorosene
Cancer cells; in vivo
  toxic effects locally and systemically: highly toxic effects
  toxicity to tissues: toxic to tissues
  wound healing process: delayed the wound healing process
Cancer cells; one percent solution
  preventing tumor growth: ineffective
Cancer cells; two percent solutions
  preventing tumor growth: effective

## N=C(N)NCCC[C@H](NC(=O)CN)C(=O)NCC(=O)N[C@@H](CC(=O)O)C(=O)N[C@@H](CO)C(=O)N1CCC[C@H]1C(=O)O [GRGDSP, glycine-arginine-glycine-aspartate-serine-proline]
B16-F10 [1]
  concentrations at which tumor cell attachment was inhibited: greater than 10 mg/ml
B16-F10 [2]
  reversibility of inhibition of tumor cell attachment: reversibly inhibited

## [Na+].[O-]Cl [sodium hydrochlorite]
Cancer cells; 0.5% solution buffered to pH 9
  preventing tumor growth: as effective as the above chemicals
Cancer cells; in vivo, pH 9
  toxicity to the animal: considerably less toxic

## N=C(N)NCCC[C@H](NC(=O)CN)C(=O)NCC(=O)N[C@@H](CC(=O)O)C(=O)N[C@@H](CO)C(=O)O [GRGDS]
B16-F10 melonoma; mouse, in vivo
  infection from use of the agents: No evidence of infection
  wound healing process: nor was the wound healing process delayed
B16-F10 melonoma; versus control animals
  average volume of tumors formed in other animals: significantly smaller
B16-F10 melonoma; wound irrigation
  formation of tumors in animals: inhibited formation of a significant percentage of tumors

## O=C(O)[C@@H]1CCN1 [LACA, L-azetidine-2-carboxylic acid]
B16-F10 [1]; Mus musculus, B16-F10, read-out: doses at which tumor cell attachment was inhibited
  minimal effective concentration: > 25 µg/mL
B16-F10 [2]
  reversibility of inhibition of tumor cell attachment: reversibly inhibited

## N=C(N)NCCC[C@H](NC(=O)CN)C(=O)NCC(=O)N[C@@H](CCC(=O)O)C(=O)N[C@@H](CO)C(=O)N1CCC[C@H]1C(=O)O [GRGESP, glycine-arginine-glycine-glutamate-serine-proline] (H-GRGESP-OH)
B16-F10 [1]; compared with GRGDSP
  attachment of B16 melanoma cells: inhibited attachment of B16 melanoma cells but was less effective
